{"source": "patent US8389468B2", "about": "“Approach to the treatment of compartment syndrome” (Lantmannen AS-Faktor AB, priority 2006, dated 2013)", "assay_type_in_all_cases": "in vivo, rat", "key": {"sciatic nerve": {"test_system": "sciatic nerve", "assay": "Sciatic nerve crush, intraneural pressure", "excerpt": "Peripheral and autonomic nerves are all delimited by an endoneurium, an perineurium and outermost an epineurium. Multiple nerve fascicles form a nerve (Cf. Hansson et al., 1987). Tendons and some of the ligaments in a body are delimited by a tender collagen membrane-like structure, the synovial sheath. The inner border layer of the latter connect the tendon with its synovial vagina, which enable sliding at minimal friction. The periphery of the latter structure is enclosed by a fibrous, membrane-like layer, the fibrous vagina. The enclosing paratendinium is in some locations hold in position and receiving nutrition by mesotendons and by vinculae (Cf. Hansson et al., 1980). […] Such a procedure resulted not only in impaired nerve function and structure but also in impaired blood and lymph circulation, and caused swelling of the sciatic nerve, the development of oedema, which included adjacent and enveloping structures, The IFP turned elevated, as assessed by the insertion of a Samba fibre optic pressure measuring probe in the affected tissue. […] The pressure in the perineurium was determined to become elevated in a day in those treated with just the vehicle, in agreement with the macroscopically recognized swelling and local oedema, i.e. having developed a CS. […]"}, "[1]": {"test_system": "liver, spleen, kidney and thyroid", "assay": "Mechanical injury of liver, spleen, kidney and thyroid", "conditions": "compression and abrasion, vs vehicle", "excerpt": "The liver, spleen, kidney and thyroid were similarly mechanically injured by compression and exposed to abrasion. […] Further the prevalence of ascites and related types of excessive extracellular fluid at elevated pressure was reduced. Thus AF-16 reduced the extent and severity of the CS in parenchymatous organs and tissues."}, "HSV-1 infected rats": {"test_system": "HSV-1 infected rats", "assay": "Survival of rats infected with HSV-1", "conditions": "10 pg or 25 pg AF-16 intranasally twice daily", "experimental": "FIG. 3: Survival frequency of rats infected with HSV-1 by the administration of a virus solution in the right nostril on day 0. Half of the rats (n=15) were treated twice daily with 1 μg AF-16 (upper line), a peptide composed of the amino acids VCHSKTRSNPENNVGL (SEQ ID NO: 1), twice daily intranasally, while the other half received just the vehicle after the HSV-1 infection (lower line). Of those treated with just the vehicle only 10% survived day 14, contrasting to the 60% of those treated with AF-16.\nTherefore, rats were infected by instillation in their right nostril of 25 μL of a solution of the herpes simplex virus type 1 (HSV-1; strain 2762, batch 041028; 1.7×10^7 PFU/mL). Half of the animals received 10 min later 25 μL (1, 10 or 25 pg) of AF-16 in their right nostril, and had thereafter the same dose of AF-16 instilled every morning at 8 AM and every night at 6 PM until the experiment was terminated on day 14. The other half of the group of HSV-1 infected rats received 25 μL of the vehicle, PBS, at the same time schedule. The animals were several times daily closely watched for signs of behavioral dysfunction or general sickness. If so, the animals were sacrificed. The FIG. 3 is illustrating the survival rates for the animals, all being infected with HSV-1. […]"}, "[2]": {"test_system": "Musculus extensor digitorum longus (EDL)", "assay": "Ischemic injury of skeletal muscle (EDL), compartment pressure", "experimental": "On the hind leg, the large vessels entering the Musculus extensor digitorum longus (EDL) were occluded for 1-3 hours by applying external pressure load (Cf. Jennische & Hansson, 1987; Jennische, Skottner & Hansson, 1987). Thereafter, the blood flow was allowed to resume, and the muscle enclosures and the skin incision repaired and sutured. […] A CS developed as the tissue and the interstitial tissue accumulated fluid in such a closed compartment and additionally the muscle tissue turned swollen and oedematous. The pressure within such an enclosed compartment increased, resulting in the development of a CS. Surgical intervention was required to prevent that parts of the skeletal muscle tissue became necrotic, if there was no additional treatment. […] Thus, treatment with AF-16 prevented the development of a CS, eventually reducing the tissue damage and loss."}, "femoral artery": {"test_system": "femoral artery", "assay": "Injured arteries, local delivery by osmotic minipump", "excerpt": "During surgery and at a trauma arteries may be injured, causing the vascular wall to swell. These events will result in the development of elevated IFP in the vascular wall, resulting in inflammatory reactions and rebuilding (Hansson, Jennische & Skottner, 1987). […] Additional animals had for comparison their pumps filled with the vehicle. The injured arteries were investigated either 3, 5, 7 or 14 days later. Blood vessels recovered from the vehicle-treated animals were tender, had increased outer diameter and were swollen. […] The potency rate was higher for those treated with AF-16 as compared to the vehicle exposed ones. […] Further, the number of macrophages, foam cells and lymphocytes was as well reduced by the AF-16 treatment."}}}
{"sequence": "VCHSKTRSNPENNVGL [AF-16]", "values": [{"measurement": "intraneural pressure", "setting": "sciatic nerve; crushed sciatic nerve, high dose from time of injury", "result": "slightly elevated or close to that measured in a normal nerve"}, {"measurement": "inflammation, oedema and tissue distortion (light microscopy)", "setting": "sciatic nerve; injured sciatic nerves", "result": "reduced the inflammation and the oedema and the tissue distortion"}, {"measurement": "oedema and swelling of injured organs", "setting": "[1]", "result": "reduce the oedema and swelling"}, {"measurement": "signs of neurological dysfunction", "setting": "HSV-1 infected rats", "result": "none showed any signs of neurological dysfunction"}, {"measurement": "survival at day 14", "setting": "HSV-1 infected rats", "result": "all the infected animals survived"}, {"measurement": "pressure within the muscle compartment", "setting": "[2]; EDL vessels occluded 1-3 hours, Samba pressure sensors", "result": "turn about normal"}, {"measurement": "extent and volume of muscle tissue damage (light microscopy)", "setting": "[2]; vs vehicle", "result": "reduced the extent and volume of the tissue damage"}, {"measurement": "swelling and inflammation of injured vessels", "setting": "femoral artery; 3, 5, 7 or 14 days, vs vehicle", "result": "less swollen and inflamed"}, {"measurement": "damage, inflammatory reactions and reactive alterations (neointima) of femoral artery", "setting": "femoral artery; after 14 days, vs vehicle", "result": "less damage and less prominent inflammatory reactions and less extensive reactive alterations"}, {"measurement": "number of macrophages, foam cells and lymphocytes", "setting": "femoral artery; rat, in vivo", "result": "reduced"}, {"measurement": "potency rate", "setting": "femoral artery; vs vehicle", "result": "higher"}]}
